Compound | melting point
O=C(O)COc1ccccc1Cl [2-chlorophenoxyacetic acid] | 150 °C
N#Cc1ccccc1O [2-cyanophenol] | 94 °C
O=C1C=CCCC1 [2-cyclohexen-1-one] | -53 °C
CCCCCCCCC(C)=O [2-decanone] | 3 °C
O=C(O)c1c(P(c2ccccc2)c2ccccc2)ccc2ccccc12 [2-diphenylphosphino-1-naphthoic acid] | 191 °C
CCCCCCCCCCC(C)=O [2-dodecanone] | 21 °C
CCOc1cc(C)ccc1O [2-ethoxy-4-methylphenol] | 29 °C
CCOc1ccccc1B(O)O [2-ethoxybenzeneboronic acid] | 100 °C
CCOCCOC(C)=O [2-ethoxyethyl_acetate] | -61 °C
CCC1C(=O)CCC1=O [2-ethyl-1,3-cyclopentanedione] | 169 °C
C=C(CC)CC [2-ethyl-1-butene] | -132 °C
CCCCC(CC)CO (centres undefined) [2-ethyl-1-hexanol] | -76 °C
CCC(C)(CO)CO [2-ethyl-2-methyl-1,3-propanediol] | 44 °C
CCC(CC)C(=O)O [2-ethylbutyric acid] | -15 °C
CCCCC(CC)C(=O)O (centres undefined) [2-ethylhexanoic acid] | -59 °C
CCCCC(CC)CN (centres undefined) [2-ethylhexylamine] | -76 °C
CC(=O)Nc1ccc(Cl)cc1F [2-fluoro-4-chloroacetanilide] | 157 °C
N#Cc1c(O)cccc1F [2-fluoro-6-hydroxybenzonitrile] | 156 °C
O=[N+]([O-])c1cccc(F)c1O [2-fluoro-6-nitrophenol] | 93 °C
CC(C(=O)O)c1ccc(-c2ccccc2)c(F)c1 (stereo not drawn) [2-fluoro-alpha-methyl-4-biphenylacetic acid] | 113 °C
OB(O)c1ccc(-c2ccccc2)c(F)c1 [2-fluorobiphenyl-4-boronic acid] | 246 °C
OB(O)c1cccnc1F [2-fluoropyridine-3-boronic acid] | 172 °C

Compound | melting point
O=C(Cl)c1ccco1 [2-furoyl chloride] | -1 °C
N#CCC(=O)c1ccco1 [2-furoylacetonitrile] | 79 °C
CCCCCC(C)=O [2-heptanone] | -35 °C
CCCCC(C)=O [2-hexanone] | -56 °C
COc1cccc(C=O)c1O [2-hydroxy-3-methoxybenzaldehyde] | 41 °C
COc1cccc(C(=O)O)c1O [2-hydroxy-3-methoxybenzoic acid] | 152 °C
S=C=Nc1ccccc1I [2-iodophenyl isothiocyanate] | 38 °C
CC(C)I [2-iodopropane] | -90 °C
CC(C)c1ccccc1B(O)O [2-isopropylbenzeneboronic acid] | 86 °C
Sc1nc2ccccc2o1 [2-mercaptobenzoxazole] | 192 °C
COc1ccc(C)cc1O [2-methoxy-5-methylphenol] | 37 °C
CNC1=CC2=NC(OC)=CC2=CC1 [2-methoxy-N-methyl-1H-indol-6-amine] | 165 °C
COc1ccccc1C(=O)O [2-methoxybenzoic acid] | 101 °C
COc1ccccc1O [2-methoxyphenol] | 30 °C
C=C(C)CC [2-methyl-1-butene] | -137 °C
CC1=C(C#N)c2ccccc2C1 [2-methyl-1H-indene-3-carbonitrile] | 70 °C
CC1=NCCN1 [2-methyl-2-imidazoline] | 100 °C
CCCC(C)(CO)CO [2-methyl-2-propyl-1,3-propanediol] | 55 °C
Cc1ccccc1CO [2-methylbenzyl alcohol] | 35 °C
Cc1ccccc1CCl [2-methylbenzyl chloride] | 2 °C
Cc1ccccc1CO [2-methylbenzyl_alcohol] | 39 °C
Cc1ccccc1CP(=O)(O)O [2-methylbenzylphosphonic acid] | 186 °C
